Results: patent US10752587B2, “Homobispiperidinyl derivatives as liver X receptor beta agonists, compositions and their use” (Merck Sharp & Dohme Corp., priority 2015, dated 2020)
Like-named read-outs stand apart in the source and are kept apart here.

Assays:
[1] = molecular target: T1, glutathione-S-transferase (GST) tagged LXRbeta LBD (ligand binding domain) (Homo sapiens, UniProt P55055); experiment: LanthaScreen TR-FRET Liver X Receptor Coactivator Assay, co-activator recruitment to LXRbeta LBD; assay type: biochemical; details: for Emax: read-out: LXR beta Activity @ max dose (%); for EC50: potency (Inflection Point, IP), co-activator recruitment to LXRbeta LBD, in relation to T0901317
T1 construct: purchased Invitrogen pv4658.pps
T1 sequence (P55055 222-460 limits assumed): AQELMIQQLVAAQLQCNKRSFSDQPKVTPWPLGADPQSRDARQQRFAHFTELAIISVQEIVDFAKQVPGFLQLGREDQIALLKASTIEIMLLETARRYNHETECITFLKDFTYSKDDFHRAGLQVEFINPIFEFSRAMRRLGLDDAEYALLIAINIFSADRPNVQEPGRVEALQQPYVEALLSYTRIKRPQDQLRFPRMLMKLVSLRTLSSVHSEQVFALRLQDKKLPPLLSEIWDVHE
In short: (§1)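 Efficacy (Emax) and inflection-point potency were scaled to reference agonist T0901317, acting on both LXR subtypes. Ligand-driven coactivator peptide recruitment was detected by TR-FRET after room-temperature incubation with terbium anti-GST antibody.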

[2] = molecular target: T2, glutathione-S-transferase (GST) tagged LXRalpha LBD (ligand binding domain) (Homo sapiens, UniProt Q13133); experiment: LanthaScreen TR-FRET Liver X Receptor Coactivator Assay, co-activator recruitment to LXRalpha LBD; assay type: biochemical; details: for Emax: read-out: LXR alpha Activity @ max dose (%); for EC50 / LXR alpha IP (nM): potency (Inflection Point, IP), co-activator recruitment to LXRalpha LBD, in relation to T0901317; for EC50: read-out: LXR alpha IP
T2 construct: purchased Invitrogen pv4655
T2 sequence (Q13133 209-447 limits assumed): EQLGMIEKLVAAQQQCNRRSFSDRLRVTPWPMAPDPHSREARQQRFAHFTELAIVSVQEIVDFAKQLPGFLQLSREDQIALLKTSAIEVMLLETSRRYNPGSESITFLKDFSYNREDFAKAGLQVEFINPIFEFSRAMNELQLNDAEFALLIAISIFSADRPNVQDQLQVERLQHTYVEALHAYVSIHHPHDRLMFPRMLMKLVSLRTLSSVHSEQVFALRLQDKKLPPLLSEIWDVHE
In short: as §1

[3] = efficacy at max dose, in relation to reference dual agonist T0901317

Row | SMILES | Emax [1, 3] [%] | EC50 ([1]; read-out: LXR beta IP) [nM] | Emax [2, 3] [%] | EC50 [2] [nM] | LXR alpha IP (nM) [2] | EC50 ([1]; LXR beta IP (nM)) [nM] | Emax [1] [%] | Emax [2] [%]
1 | CN(C)C(=O)c1ccc(N2CCC(CC3CCN(C(=O)C4(c5ccccc5F)CCCC4)CC3)CC2)nc1Cl [Example 7-65, 2-chloro-6-{4-[(1-{[1-(2-fluorophenyl)cyclopentyl]carbonyl}piperidin-4-yl)methyl]piperidin-1-yl}-N,N-dimethylpyridine-3-carboxamide] | 95 | 48 | 29 | 658 |  |  |  | 
2 | CN(C)C(=O)c1ccc(N2CCC(CC3CCN(C(=O)[C@](O)(c4ccccc4)C(F)(F)F)CC3)CC2)nc1Cl [Example 7-63, 2-chloro-N,N-dimethyl-6-[4-({1-[(2R)-3,3,3-trifluoro-2-hydroxy-2-phenylpropanoyl]piperidin-4-yl}methyl)piperidin-1-yl]pyridine-3-carboxamide] | 102 | 6 | 39 | 158 |  |  |  | 
3 | CN(C)C(=O)c1ccc(N2CCC(CC3CN(C(=O)[C@](O)(c4cc(F)cc(Cl)c4)C(F)(F)F)C3)CC2)nc1Cl [Example 7-40, 2-chloro-6-[4-({1-[(2R)-2-(3-chloro-5-fluorophenyl)-3,3,3-trifluoro-2-hydroxypropanoyl]azetidin-3-yl}methyl)piperidin-1-yl]-N,N-dimethylpyridine-3-carboxamide] | 113 | 4 | 49 | 291 |  |  |  | 
4 | COc1cc(Cl)cc([C@@](O)(C(=O)N2CCC(CC3CCN(c4ccc(C(=O)N(C)C)c(Cl)n4)CC3)CC2)C(F)(F)F)c1 [Example 7-107, 2-chloro-6-[4-({1-[(2R)-2-(3-chloro-5-methoxyphenyl)-3,3,3-trifluoro-2-hydroxypropanoyl]piperidin-4-yl}methyl)piperidin-1-yl]-N,N-dimethylpyridine-3-carboxamide] | 26 | 3 | 0 |  | NO IP |  |  | 
5 | Cc1cccc(C(O)(C(=O)N2CCC(CC3CCN(c4ccc(C(=O)N(C)C)c(Cl)n4)CC3)CC2)C(F)(F)F)c1 (stereo not drawn) [Example 7-55, 2-chloro-N,N-dimethyl-6-[4-({1-[3,3,3-trifluoro-2-hydroxy-2-(3-methylphenyl)propanoyl]piperidin-4-yl}methyl)piperidin-1-yl] pyridine-3-carboxamide] | 59 | 5 | 9 | 141 |  |  |  | 
6 | CN(C)C(=O)c1ccc(N2CCC(CC3CCN(C(=O)[C@](O)(c4cccc(OC5CC5)c4)C(F)(F)F)CC3)CC2)cc1Cl [Example 2-99, 2-chloro-4-{4-[(1-{(2R)-2-[3-(cyclopropyloxy)phenyl]-3,3,3-trifluoro-2-hydroxy-propanoyl}piperidin-4-yl)methyl]piperidin-1-yl}-N,N-dimethyl-benzamide] | 37 | 8 | 0 |  | NO IP |  |  | 
7 | COc1cc(Cl)cc([C@@](O)(C(=O)N2CCC(CC3CCN(c4ccc(C(=O)N(C)C)cc4)CC3)CC2)C(F)(F)F)c1 [Example 2-138, 4-[4-({1-[(2R)-2-(3-chloro-5-methoxyphenyl)-3,3,3-trifluoro-2-hydroxy-propanoyl]piperidin-4-yl}methyl)piperidin-1-yl]-N,N-dimethyl-benzamide] | 35 | 74 | 0 |  | NO IP |  |  | 
8 | Cc1cccc(C(O)(C(=O)N2CCC(CC3CCN(c4ccc(C(=O)N(C)C)c(C)n4)CC3)CC2)C(F)(F)F)c1 (stereo not drawn) [Example 7-6, N,N,2-trimethyl-6-[4-({1-[3,3,3-trifluoro-2-hydroxy-2-(3-methylphenyl)propanoyl]piperidin-4-yl}methyl)piperidin-1-yl]pyridine-3-carboxamide] | 70 | 46 | 11 |  | NO IP |  |  | 
9 | CN(C)C(=O)c1ccc(N2CCC(CC3CCN(C(=O)C(O)(c4cccc(Cl)c4)C(F)(F)F)CC3)CC2)cc1Cl (stereo not drawn) [Example 2-17, 2-chloro-4-[4-({1-[2-(3-chlorophenyl)-3,3,3-trifluoro-2-hydroxy-propanoyl]piperidin-4-yl}methyl)piperidin-1-yl]-N,N-dimethyl-benzamide] | 63 | 11 | 24 | 140 |  |  |  | 
10 | CN(C)C(=O)c1ccc(N2CCC(CC3CCN(C(=O)[C@@](O)(c4ccccc4F)C(F)(F)F)CC3)CC2)nc1Cl [Example 7-71, 2-chloro-N,N-dimethyl-6-[4-({1-[(2S)-3,3,3-trifluoro-2-(2-fluorophenyl)-2-hydroxypropanoyl]piperidin-4-yl}methyl)piperidin-1-yl]pyridine-3-carboxamide] | 122 | 55 | 45 | 2060 |  |  |  | 
11 | CC(C)N(C)C(=O)c1ccc(N2CCC(CC3CCN(C(=O)[C@](O)(c4ccccc4)C(F)(F)F)CC3)CC2)cc1Cl [Example 4-2, 2-chloro-N-methyl-N-(1-methylethyl)-4-[4-({1-[(2R)-3,3,3-trifluoro-2-hydroxy-2-phenyl-propanoyl]piperidin-4-yl}methyl)piperidin-1-yl]benzamide] | 73 | 29 | 30 | 270 |  |  |  | 
12 | COc1cccc([C@@](O)(C(=O)N2CCC(C(=O)N3CCN(c4ccc(C(=O)N(C)C)c(Cl)c4)CC3)CC2)C(F)(F)F)c1 [Example 5-1, (R)-2-chloro-N,N-dimethyl-4-(4-(1-(3,3,3-trifluoro-2-hydroxy-2-(3-methoxyphenyl)propanoyl)piperidine-4-carbonyl)piperazin-1-yl)benzamide] |  |  |  |  | NO IP | 12400 | 31 | 5
13 | CCc1cccc([C@@](O)(C(=O)N2CC(CC3CCN(c4ccc(C(=O)N(C)C)c(Cl)c4)CC3)C2)C(F)(F)F)c1 [Example 2-64, 2-chloro-4-[4-({1-[(2R)-2-(3-ethyl-phenyl)-3,3,3-trifluoro-2-hydroxy-propanoyl]azetidin-3-yl}methyl)piperidin-1-yl]-N,N-dimethyl-benzamide] | 75 | 30 | 18 | 1070 |  |  |  | 
14 | CNC(=O)c1ccc(N2CCC(CC3CCN(C(=O)[C@](O)(c4cccc(OC(C)C)c4)C(F)(F)F)CC3)CC2)nc1Cl [Example 7-136, 2-chloro-N-methyl-6-{4-[(1-{(2R)-3,3,3-trifluoro-2-hydroxy-2-[3-(1-methylethoxy)phenyl]propanoyl}piperidin-4-yl)methyl]piperidin-1-yl}pyridine-3-carboxamide] | 86 | 14 | 6 |  | NO IP |  |  | 
15 | COc1cccc(C(O)(C(=O)N2CCC(CC3CCN(c4ccc(C(=O)N(C)C)c(Cl)n4)CC3)CC2)C(F)(F)C(F)(F)F)c1 (stereo not drawn) [Example 7-58, 2-chloro-N,N-dimethyl-6-[4-({1-[3,3,4,4,4-pentafluoro-2-hydroxy-2-(3-methoxyphenyl)butanoyl]piperidin-4-yl}methyl)piperidin-1-yl]pyridine-3-carboxamide] | 80 | 11 | 19 | 274 |  |  |  | 
16 | CC(C)Oc1cccc([C@@](O)(C(=O)N2CCC(C)(CC3CCN(c4ccc(C(=O)N(C)C)c(Cl)n4)CC3)CC2)C(F)(F)F)c1 [Example 7-48, 2-chloro-N,N-dimethyl-6-{4-[(4-methyl-1-{(2R)-3,3,3-trifluoro-2-hydroxy-2-[3-(1-methylethoxy)phenyl]propanoyl}piperidin-4-yl)methyl]piperidin-1-yl}pyridine-3-carboxamide] | 64 | 10 | 16 |  | NO IP |  |  | 
17 | CNC(=O)c1ccc(N2CCC(CC3CCN(C(=O)C(O)(c4cccnc4)C(F)(F)F)CC3)CC2)nc1Cl (stereo not drawn) [Example 7-142, 2-chloro-N-methyl-6-(4-{[1-(3,3,3-trifluoro-2-hydroxy-2-pyridin-3-ylpropanoyl)piperidin-4-yl]methyl}piperidin-1-yl)pyridine-3-carboxamide] | 133 | 99 | 81 | 2550 |  |  |  | 
18 | CCOc1cccc(C(O)(C(=O)N2CCC(CC3CCN(c4ccc(C(=O)N(C)C)c(Cl)n4)CC3)CC2)C(F)(F)F)c1 (stereo not drawn) [Example 7-77, 2-chloro-6-[4-({1-[2-(3-ethoxyphenyl)-3,3,3-trifluoro-2-hydroxypropanoyl]piperidin-4-yl}methyl)piperidin-1-yl]-N,N-dimethylpyridine-3-carboxamide] | 53 | 10 | 6 |  | NO IP |  |  | 
